Experimental data as given in patent US11046690B2, “Pyridazinones and methods of use thereof” (Goldfinch Bio, Inc., priority 2018, dated 2021).

Molecular target: T1, TRPC5 (Homo sapiens, UniProt Q9UL62)
T1 construct: expressed in transfected cells
T1 sequence (Q9UL62 1-973): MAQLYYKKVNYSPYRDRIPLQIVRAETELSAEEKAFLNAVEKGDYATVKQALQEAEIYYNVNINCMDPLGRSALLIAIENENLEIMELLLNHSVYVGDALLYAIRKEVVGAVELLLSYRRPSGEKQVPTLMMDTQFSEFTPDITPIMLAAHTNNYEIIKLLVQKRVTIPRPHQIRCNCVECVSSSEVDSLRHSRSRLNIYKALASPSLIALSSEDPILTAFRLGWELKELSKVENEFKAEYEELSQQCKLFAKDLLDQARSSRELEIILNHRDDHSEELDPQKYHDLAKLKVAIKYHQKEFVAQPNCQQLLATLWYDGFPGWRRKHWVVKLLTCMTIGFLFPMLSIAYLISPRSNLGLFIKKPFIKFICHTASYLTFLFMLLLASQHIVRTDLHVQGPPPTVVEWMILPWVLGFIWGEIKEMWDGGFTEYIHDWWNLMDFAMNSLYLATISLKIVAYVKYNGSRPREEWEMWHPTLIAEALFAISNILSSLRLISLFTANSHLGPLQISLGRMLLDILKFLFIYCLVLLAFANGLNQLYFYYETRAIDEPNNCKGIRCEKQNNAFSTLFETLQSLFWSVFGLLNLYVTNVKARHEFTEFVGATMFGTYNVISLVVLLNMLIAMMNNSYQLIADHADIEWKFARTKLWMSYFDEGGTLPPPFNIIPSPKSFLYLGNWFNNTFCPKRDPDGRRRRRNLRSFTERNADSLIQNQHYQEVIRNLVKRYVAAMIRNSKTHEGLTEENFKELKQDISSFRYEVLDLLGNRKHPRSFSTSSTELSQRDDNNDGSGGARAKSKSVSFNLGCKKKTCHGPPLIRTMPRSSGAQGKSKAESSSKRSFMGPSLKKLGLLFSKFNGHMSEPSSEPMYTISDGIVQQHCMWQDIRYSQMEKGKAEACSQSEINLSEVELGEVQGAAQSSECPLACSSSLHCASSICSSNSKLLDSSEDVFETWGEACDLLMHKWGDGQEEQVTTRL
Assay: TRPC5 activity assay (FLIPR calcium fluorescence, Riluzole stimulation)
Format: cell-based
Details: HEK-TREx hTRPC5 cells, 30 μM Riluzole stimulation; read-out: TRPC5 (IC50 class)
Experimental: ICLN-1633 cells (HEK-TREx hTRPC5) expressing TRPC5 were generated as follows. Commercially available HekTrex-293 cells were seeded at 0.7×10^6 cells/well in a 1×6-well plate 24 hrs prior to transfection using 2 mL cell growth media containing no antibiotics (1× DMEM/high glucose (Hyclone #SH30022.02); 10% fetal bovine serum (Sigma) 2 mM sodium pyruvate, 10 mM HEPES). […] On day 2, 2 μg of plasmid DNA plus 6 μl of Xtreme-GENE HP reagent in Optimem (200 μl total volume) was prepared and incubated for 15 min at room temperature. This plasmid solution was then gently overlayed dropwise onto each well and the plate was gently swirled to mix complex with the media for approximately 30 seconds. Transfected cells were incubated at 37° C. in a 10%/CO2 incubator for 24 hrs. The transfected cells were harvested and transferred into 2×150 mm dishes containing cell growth media with no antibiotics at 37° C.
The next day selection was initiated to generate a stable pool by adding cell growth media containing 150 μg/mL Hygromycin and 5 μg/mL Blasticidin and cells were allowed to grow. Media with the selection agent was changed every 1-2 days as needed to remove dead cells. After 7 days, the hygromycin concentration was reduced to 75 μg/mL and cells growth was allowed to continue.
Single clones were selected as follows. The stable pool was diluted to 10 cells/mL and seeded (100 μl/well) into 24×96 well plates (˜1 cell/well) and allowed to grow for 7 days in cell growth media. Fresh media (100 μl) was added and the cells allowed to grow for another 1-2 weeks and then stored frozen or used immediately.
10-point dose response curves were generated using the Echo-550 acoustic dispenser. Compound source plates were made by serially diluting compound stocks to create 10 mM, 1 mM, and 0.1 mM solutions in DMSO into Echo certified LDV plates. The Echo then serially spotted 100%/DMSO stock solutions into source dose response plates to generate a 4-fold dilution scheme. 100%0/DMSO was added to the spotted dose response plates to bring the final volume to 5 μl. 300 nl of the dose response stock plate was then spotted into pre-incubation and stimulation assay plates. 50 μl of pre-incubation buffer and 100 μl of stimulation buffer was then added to the plates resulting in a final assay test concentration range of 30 μM to 0.0001 μM with a final DMSO concentration of 0.3%.
Human ICLN-1633 cells expressing were plated onto 384 well, black PDL-coated microplates and maintained in TRPC5 growth media the day prior to use for experiments. TRPC5 expression was induced by the application of 1 μg/mL tetracycline at the time of plating. […] Cells are incubated at room temperature, protected from light, for 60-90 minutes. After the incubation period, the dye is removed and replaced with 10 μl of EBSS. Cell, pre-incubation and stimulation plates are loaded onto the FLIPR-II and the assay is initiated. The FLIPR measures a 10 second baseline and then adds 10 μl of 2X compounds (or controls). Changes in fluorescence are monitored for an additional 5 minutes. After the 5 minute pre-incubation, 20 μl of 2X Riluzole (with 1X compound or controls) is added to the cell plate. The final Riluzole stimulation concentration in the assay is 30 μM. After the Riluzole addition, changes in fluorescence are monitored for an additional 5 minutes.
Compound modulation of TRPC5 calcium response was determined as follows. After the Englerin A, fluorescence was monitored for a 5-minute period. The maximum relative fluorescence response (minus the control response of 1 μM of an internal control compound known to maximally block TRPC5 calcium response, the “REF INHIB” in the formula below) was captured and exported from the FLIPR.
Compound effect is calculated as % inhibition using the following formula:
[formula] wherein “RFU” is the relative fluorescent units.

IC50 | Structure (SMILES)
< 0.05 µM | CC1Cc2c(ncnc2Oc2ccc(F)cc2Cl)CN1c1cn[nH]c(=O)c1Cl (single isomer, unassigned) [Compound 117]
< 0.05 µM | O=c1[nH]ncc(N2CCc3c(ncnc3Oc3ccc(F)cc3Cl)C2)c1Cl [Compound 104]
